Laboratory results: patent US10035790B2, “RORγ modulators” (BRISTOL-MYERS SQUIBB COMPANY, priority 2012, dated 2018)

What follows are molecules tested against T1, ligand binding domain of human RORγ (A262-S507) (Homo sapiens, UniProt P51449) (assay: General RORγ SPA binding assay (competition with [3H]25-hydroxycholesterol)). Conditions: IC50, RORγ SPA binding assay, inhibition of [3H]25-hydroxycholesterol binding.
T1 construct: made in house; host or cells: E. coli
T1 sequence (P51449 262-507): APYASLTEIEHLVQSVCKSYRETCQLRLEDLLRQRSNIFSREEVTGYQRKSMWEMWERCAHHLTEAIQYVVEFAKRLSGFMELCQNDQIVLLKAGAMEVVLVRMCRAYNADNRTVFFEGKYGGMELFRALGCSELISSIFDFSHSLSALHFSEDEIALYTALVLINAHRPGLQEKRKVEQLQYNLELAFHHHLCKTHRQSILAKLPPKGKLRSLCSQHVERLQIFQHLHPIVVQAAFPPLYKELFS
Procedure, shortened: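 Step one: compound meets 50 nM nickel-purified, His-tagged protein from E. coli for 15 min at room temperature (PBS, 0.5% fatty acid free BSA). Step two: radioligand is added for another 15 min. Step three: SPA beads are added for 30 min before scintillation reading and IC50 fitting.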
Work on `Cc1nc(C)c(C(=O)NCc2ccnc(C(F)(F)F)n2)c(C2CCN(C(=O)Oc3ccccc3)CC2)n1` [Compound A125, Phenyl 4-{2,6-dimethyl-5-[({[2-(trifluoromethyl)pyrimidin-4-yl]methyl}amino)carbonyl]pyrimidin-4-yl}piperidine-1-carboxylate] yielded an IC50 of 0.0116 µM.

Same assay, conditions: RORγ SPA binding assay, inhibition of [3H]25-hydroxycholesterol binding; read-out: IC50
With `CSc1nc(C)c(-c2nnc(-c3cccc(C(F)(F)F)n3)o2)c(C2CCN(C(=O)Nc3c(F)cccc3F)CC2)n1` [Compound C58, N-(2,6-Difluorophenyl)-4-[6-methyl-2-(methylthio)-5-{5-[6-(trifluoromethyl)pyridin-2-yl]-1,3,4-oxadiazol-2-yl}pyrimidin-4-yl]piperidine-1-carboxamide] the IC50 was 0.0141 µM. For `Cc1cc(C)cc(COCc2cnc(C)nc2C2CCN(C(=O)Cc3c(F)cccc3F)CC2)c1` [Compound E10, 2-(2,6-Difluorophenyl)-1-(4-(5-((3,5-dimethylbenzyloxy)methyl)-2-methylpyrimidin-4-yl)piperidin-1-yl)ethanone], the IC50 was 0.079 µM. In the case of `Cc1nc(C2CCN(C(=O)Cc3c(F)cccc3F)CC2)c(/C=N/Oc2cccc(C(F)(F)F)c2)c(=O)[nH]1` [Compound I6, (E)-4-(1-(2-(2,6-Difluorophenyl)acetyl)piperidin-4-yl)-2-methyl-6-oxo-1,6-dihydropyrimidine-5-carbaldehyde O-3-(trifluoromethyl)phenyl oxime], the IC50 is reported as 0.0609 µM. With `Cc1ncc(C(C)(O)COc2cccnc2)c(C2CCN(C(=O)Cc3c(F)cccc3F)CC2)n1` (stereo not drawn) [Compound D14, 2-(2,6-difluorophenyl)-1-(4-(5-(2-hydroxy-1-(pyridin-3-yloxy)propan-2-yl)-2-methylpyrimidin-4-yl)piperidin-1-yl)ethanone] the IC50 was 0.481 µM. `Cc1cc(C)cc(CNC(=O)c2cnc(C)nc2C2CCN(C(=O)Cc3ccccc3C)CC2)c1` [Compound A11, N-(3,5-dimethylbenzyl)-2-methyl-4-(1-(2-(o-tolyl)acetyl)piperidin-4-yl)pyrimidine-5-carboxamide] was tested, and the IC50 was 0.049 µM. Work on `Cc1cc(C)cc(CNC(=O)c2cnc(C)nc2C2CCN(C(=O)C(F)(F)c3ccccc3F)CC2)c1` [Compound A118, 4-{1-[Difluoro(2-fluorophenyl)acetyl]piperidin-4-yl}-N-[(3,5-dimethylphenyl)methyl]-2-methylpyrimidine-5-carboxamide] yielded an IC50 of 0.0516 µM. `C/C(=N\Oc1ccnc(C(F)(F)F)n1)c1cnc(C)nc1C1CCN(C(=O)Cc2c(F)cccc2F)CC1` [Compound B20, (E)-2-(2,6-difluorophenyl)-1-(4-(2-methyl-5-(1-(((2-(trifluoromethyl)pyrimidin-4-yl)oxy)imino)ethyl)pyrimidin-4-yl)piperidin-1-yl)ethanone] was tested, and the IC50 was 0.0158 µM. With `C/C(=N\Oc1cc(C)cc(C)c1)c1cnc(C)nc1C1CCN(C(=O)Cc2c(F)cccc2F)CC1` [Compound B9, (E)-2-(2,6-difluorophenyl)-1-(4-(5-(1-((3,5-dimethylphenoxy)imino)ethyl)-2-methylpyrimidin-4-yl)piperidin-1-yl)ethanone] the IC50 was 0.0027 µM. `Nc1ncc(C(N)COc2cccc(C(F)(F)F)n2)c(C2CCN(C(=O)Oc3ccccc3F)CC2)n1` (stereo not drawn) [Compound N29, 2-Fluorophenyl 4-[2-amino-5-(1-amino-2-{[6-(trifluoromethyl)pyridin-2-yl]oxy}ethyl)pyrimidin-4-yl]piperidine-1-carboxylate] gave an IC50 of 10 µM. Molecule `Cc1nc(C)c(C(=O)NCc2ccnc(C(F)(F)F)n2)c(C2CCN(C(=O)Cc3c(F)cccc3F)CC2)n1` [Compound A121, 4-{1-[(2,6-Difluorophenyl)acetyl]piperidin-4-yl}-2,6-dimethyl-N-{[2-(trifluoromethyl)pyrimidin-4-yl]methyl}pyrimidine-5-carboxamide] has an IC50 of 0.0584 µM. `Cc1cc(C)cc(COC(C)c2cnc(C)nc2C2CCN(C(=O)Cc3c(F)cccc3F)CC2)c1` (stereo not drawn) [Compound E11, 2-(2,6-Difluorophenyl)-1-(4-(5-(1-(3,5-dimethylbenzyloxy)ethyl)-2-methylpyrimidin-4-yl)piperidin-1-yl)ethanone] showed an IC50 of 0.0192 µM.
